What was measured:
[1] = tested on: HIV-1 (HTLVIIIB); experiment: microbe, parasite or virus in culture; conditions: Human immunodeficiency virus 1, H9, read-out: median dose (p24 release)
Description: The effects for test compounds were assessed by means of both IFA and p24 release. In general, the following protocol was followed: H9 cells were infected with HIV-1 at 1000 50% infective doses of viruses/10^6 cells. Virus was allowed to adsorb for 1 h, after which unadsorbed virus was removed by centrifugation. The cells were resuspended and washed twice with PBS (without Ca^+2 or Mg^+2 salts) and centrifuged to collect the cell pellet (150×g×10 min). Cells were suspended in fresh medium and added at a final cell density of 500,000 cells/ml in a 96-well plate with media containing 0.1% DMSO and various concentrations of test compounds. The cells were re-fed freshly prepared media containing 0.1% DMSO±test compounds on day four (for preinduction experiments, cells were exposed to inducers on days -2, 0, and +4 days relative to infection). After seven days, cells were examined for cytoxicity by trypan blue exclusion, the degree of infection with HIV-1 by IFA, and the supernatants were assayed for p24 levels according to the manufacturer's directions. The IFA procedure can be summarized as follows: The cells were washed twice in PBS and were placed in 5 mm 12-well slides. After allowing the slides to dry and fixing the cells with acetone for 5 min, 10 μl of HIV-1 positive serum in 40 μl PBS was added to each well and allowed to incubate at 37° C. for 30 min. After incubation, the slides were washed twice with PBS and incubated at 37° C. for 30 min with 2.5 μl goat anti-human IgG-fluorescein isothiocyanate conjugate in 50 μl PBS containing 0.01% Evans Blue per well. The slides were then washed twice with PBS, dried, and mounted with 50% glycerol in PBS, and scored for the percentage of fluorescent cells by fluorescent microscopy.
Statistical significance for GSH and QR levels were established by the unpaired t test using the INSTAT statistics program (Graphpad, San Diego, Calif.). The Ki of oltipraz was determined by performing Segal transformations (26) of Dixon plots. […] Calculations were performed on spreadsheets using Lotus 1-2-3 software (Cambridge, Mass.).

[2] = tested on: HIV-1; conditions: cited from earlier work
[3] = tested on: HIV-1; conditions: HIV-1 infected patients, pharmacokinetics study; cited from earlier work

SMILES | IC50 [1] [nM] | synergy with anti-HIV-1 drugs ([2]; in vitro, Kong et al.) | effect on surrogate markers for HIV-1 [3] | inhibition of HIV-1 replication ([2]; cultured cells)
Cc1cn([C@H]2C[C@H](N=[N+]=[N-])[C@@H](CO)O2)c(=O)[nH]c1=O [AZT, 3'-azido-3'-deoxythymidine] | 45 | synergistic with anti-HIV-1 drugs such as phosphonoformate | – | –
CC(=O)N[C@@H](CS)C(=O)O [N-acetylcysteine] | – | – | did not alter surrogate markers for HIV-1 | effectively inhibit the replication of HIV-1

Reference: patent publication US5691338A, “1,2-dithiole-3 thiones for the treatment of reverse transcriptase-dependent viral infections” (priority 1995, dated 1997)
